The record followed here is US6022893A, “Hydroxamic acid derivatives” (ONO Pharmaceutical Co., Ltd., priority 1995, dated 2000).

Molecules are shown by their SMILES.

Assay [1] concerns the target T1, gelatinase A (Homo sapiens, UniProt P08253).
T1 construct: endogenous in cells; host or cells: human normal skin dermal fibroblasts (HNDF); progelatinase A purified from them
T1 sequence (P08253 110-660): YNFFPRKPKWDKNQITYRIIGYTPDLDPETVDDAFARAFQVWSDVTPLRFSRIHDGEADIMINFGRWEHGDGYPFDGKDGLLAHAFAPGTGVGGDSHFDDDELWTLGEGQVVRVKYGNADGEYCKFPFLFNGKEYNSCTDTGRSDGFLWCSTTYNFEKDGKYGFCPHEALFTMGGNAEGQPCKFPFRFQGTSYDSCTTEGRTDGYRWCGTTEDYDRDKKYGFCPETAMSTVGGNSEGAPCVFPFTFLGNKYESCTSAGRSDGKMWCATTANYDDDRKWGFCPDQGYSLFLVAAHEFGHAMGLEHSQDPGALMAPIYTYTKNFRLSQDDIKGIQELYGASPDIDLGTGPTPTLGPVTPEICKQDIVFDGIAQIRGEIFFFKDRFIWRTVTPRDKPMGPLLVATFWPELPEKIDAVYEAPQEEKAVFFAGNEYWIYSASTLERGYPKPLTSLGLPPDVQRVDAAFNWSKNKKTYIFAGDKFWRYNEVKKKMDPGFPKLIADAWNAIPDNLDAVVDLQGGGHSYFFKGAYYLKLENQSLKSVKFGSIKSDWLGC
The experiment in a line: Inhibitory activity against gelatinase A (FITC-labeled gelatin substrate). The assay is classed as biochemical. Conditions: incubated 2 hours at 37° C., APMA-activated progelatinase A from human normal skin dermal fibroblasts. How it is done:
(§1) The potency of inhibitory activity against each matrix metalloproteinase is confirmed as below. The IC50 value for inhibition of gelatinase A activity is determined as follows.
(§2) (1) Inhibitory activity against gelatinase A
(§3) Progelatinase A (7 μl; in assay buffer (90 μl )) was purified from human normal skin dermal fibroblasts (HNDF). It was activated by the addition of 10 mM of p-aminophenylmercuric acetate (APMA) (10 μl) for 1 hour at 37° C.
The solution of activated gelatinase A (7 μl tube, 98μl) was mixed with various concentrations of the test compound or dimethylsulfoxide (2 μl) and gelatin (100 μl) labeled with 0.05% fluorescein isothiocyanate (FITC) and incubated for 2 hours at 37° C. The reaction was terminated by the addition of 0.1 M Tris-HCI (pH9.5) containing 94.7% ethanol (750 μl). The mixture was stirred and then allowed to stand for 30 minutes at 0° C. The mixture was centrifuged for 30 minutes at 900×g. The IC50 was determined by measuring the fluorescent intensity in the supernatant (Ex=495 nm, and Em=520 nm). The results are shown in Table 24 (Example number 2 and 2(3)).

Assay [2] has as its target T1, gelatinase A. Put plainly: Inhibitory activity against gelatinase A (synthetic substrate MOCAc-Pro-Leu-Gly-Leu-A2 pr(Dnp)-Ala-Arg-NH2). The assay is classed as biochemical. Conditions: final 13.5 μM, incubated 20 minutes at 37° C., activated gelatinase A. As for the experimental part:
as §1, §2, §3
Alternatively the inhibitory activity of the test compound was measured by using the synthetic substrate (MOCAc-Pro-Leu-Gly-Leu-A2 pr(Dnp)-Ala-Arg-NH2). The substrate solution (890 μl; the final concentration was 13.5 μM) was mixed with various concentrations of the test compound or dimethylsulfoxide ([…]) for 5 minutes at 37° C. The activated gelatinase A (7 μl/tube, 100 μl) was added to the reaction mixture and further incubated for 20 minutes at 37° C. 0.1 M sodium acetate buffer (2 ml; pH4.0) was added into the mixture. The IC50 was determined by measuring the fluorescent intensity (Ex=328 nm, and Em=393 nm) in this solution. The results are shown in Table 24 (Example number 2(4) and 3(2)).

In general, IC50 refers to the point on the concentration scale where inhibition reaches its midpoint. A higher IC50 goes with lower potency.

In turn, `CCCCCc1ccc(C(=O)Nc2ccc(S(=O)(=O)N[C@H](Cc3ccccc3)C(=O)NO)cc2)cc1` [Example 2(3), N-Hydroxy-N-[N'-[[4-(4-pentylbenzoylamino)phenyl]sulfonyl]-D-phenylalanyl]amide] returned an IC50 in assay [1] of 1 nM.

Consider `Cc1ccc(C(=O)Nc2ccc(S(=O)(=O)N[C@H](Cc3c[nH]c4ccccc34)C(=O)NO)cc2)cc1` [Example 2(4), N-Hydroxy-N-[N'-[[4-(p-toluoylamino)phenyl]sulfonyl]-D-tryptophyl]amide], for which the IC50 in assay [2] turned out to be 0.61 nM.

Turning to `Cc1ccc(C(=O)Nc2ccc(S(=O)(=O)NCC(=O)NO)cc2)cc1` [Example 2, N N-Hydroxy-N-[N'-[[4-(p-toluoylamino)phenyl]sulfonyl]glycyl]amide], the IC50 in assay [1] is 1.7 nM.

As to `C[C@@H](NS(=O)(=O)c1ccc(NC(=O)c2cccs2)cc1)C(=O)NO` [Example 3(2)], in assay [2], the half-inhibitory concentration (IC50) amounted to 0.23 nM.
